Source: US20120165384A1, “INHIBITION OF HISTONE ACETYLTRANSFERASES BY CTK7A AND METHODS THEREOF” (JAWAHARLAL NEHRU CENTRE FOR ADVANCED SCIENTIFIC RESEARCH, priority 2009, published 2012)

Experiments:
PCAF = molecular target: T1, PCAF (Homo sapiens, UniProt Q92831); experiment: PCAF autoacetylation assay in vitro; type: biochemical; settings: concentration dependent
T1 construct: Recombinant baculovirus expressing full-length FLAG-tagged CARM1,CBP and PCAF; FLAG; made in house; host or cells: baculovirus-infected Sf21 cells
T1 sequence (Q92831 whole entry, species assumed): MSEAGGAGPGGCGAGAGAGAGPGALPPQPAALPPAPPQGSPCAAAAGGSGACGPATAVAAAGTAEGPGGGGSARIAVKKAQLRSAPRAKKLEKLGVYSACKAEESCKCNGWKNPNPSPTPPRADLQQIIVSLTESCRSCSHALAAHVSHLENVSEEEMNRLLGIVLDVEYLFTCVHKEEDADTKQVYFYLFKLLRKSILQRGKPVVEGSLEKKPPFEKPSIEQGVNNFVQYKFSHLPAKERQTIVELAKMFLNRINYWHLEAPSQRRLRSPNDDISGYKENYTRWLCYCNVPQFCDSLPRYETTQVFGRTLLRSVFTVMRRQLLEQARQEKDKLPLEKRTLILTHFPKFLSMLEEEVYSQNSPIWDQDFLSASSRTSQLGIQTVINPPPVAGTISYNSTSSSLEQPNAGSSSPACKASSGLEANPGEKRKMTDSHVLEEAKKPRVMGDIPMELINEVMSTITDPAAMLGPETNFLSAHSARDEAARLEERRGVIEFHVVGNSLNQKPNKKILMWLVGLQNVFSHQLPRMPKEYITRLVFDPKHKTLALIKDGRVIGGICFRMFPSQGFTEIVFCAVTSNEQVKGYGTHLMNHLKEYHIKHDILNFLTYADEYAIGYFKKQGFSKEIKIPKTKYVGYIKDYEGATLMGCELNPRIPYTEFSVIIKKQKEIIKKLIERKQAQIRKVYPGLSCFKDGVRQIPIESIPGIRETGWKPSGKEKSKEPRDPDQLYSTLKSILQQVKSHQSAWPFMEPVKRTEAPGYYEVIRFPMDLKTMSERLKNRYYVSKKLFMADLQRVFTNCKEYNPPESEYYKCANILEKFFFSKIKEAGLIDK

KB cells [1] = experiment: In vitro wound-healing assay; type: cell-based; settings: 24 h, in the presence of serum
Protocol: Cells in medium containing 10% FBS were seeded in 30 mm dishes. After the cells grew to confluence, wounds of constant diameter were made by sterile plastic pipette tip (200-μl) by scratching the monolayers. Cells were washed with the serum free medium twice and refreshed with medium with or without 10% FBS. Cells were treated with or without the HAT inhibitor for 24 h along with 10% serum. The wound photographs were taken under phase-contrast microscope. Serum positive and negative cells act as positive and negative control for the experiments respectively.

CARM1 = molecular target: T2, CARM1 (Homo sapiens, UniProt Q86X55); experiment: Histone methyltransferase (HMTase) assay, CARM1; type: biochemical; settings: even at 100 μM
T2 construct: Recombinant baculovirus expressing full-length FLAG-tagged CARM1,CBP and PCAF; FLAG; made in house; host or cells: baculovirus-infected Sf21 cells
T2 sequence (Q86X55 1-608): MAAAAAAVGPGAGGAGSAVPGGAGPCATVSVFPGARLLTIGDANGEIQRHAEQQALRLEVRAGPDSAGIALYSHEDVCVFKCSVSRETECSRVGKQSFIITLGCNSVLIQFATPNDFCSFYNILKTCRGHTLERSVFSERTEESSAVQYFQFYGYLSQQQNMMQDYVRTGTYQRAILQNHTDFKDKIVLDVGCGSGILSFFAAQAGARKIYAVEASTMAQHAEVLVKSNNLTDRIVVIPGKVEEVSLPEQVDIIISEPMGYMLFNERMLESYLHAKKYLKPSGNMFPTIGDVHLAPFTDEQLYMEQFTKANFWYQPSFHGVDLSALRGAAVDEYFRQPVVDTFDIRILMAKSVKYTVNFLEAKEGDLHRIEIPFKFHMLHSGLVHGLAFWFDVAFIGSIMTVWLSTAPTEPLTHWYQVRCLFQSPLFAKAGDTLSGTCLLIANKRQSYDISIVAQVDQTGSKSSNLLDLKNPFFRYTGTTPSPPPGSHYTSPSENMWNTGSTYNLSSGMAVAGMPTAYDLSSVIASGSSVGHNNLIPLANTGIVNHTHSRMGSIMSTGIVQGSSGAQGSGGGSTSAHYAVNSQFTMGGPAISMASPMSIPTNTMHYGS
Protocol: (§1) Recombinant baculovirus expressing full-length FLAG-tagged CARM1,CBP and PCAF were purified by immunoaffinity chromatography using M2-agarose beads followed by elution with FLAG peptide. Baculovirus-expressed full-length hexahistidine-tagged p300, and G9a were purified using Ni-NTA affinity chromatography as described previously^30.
(§2) The deacetylation assay was performed as per standard protocol^31. For SirT2 deacetylase assay, 50 ng of bacterially expressed, recombinant enzyme was added in the presence or absence of cofactor NAD^+. HMTase was performed as reported earlier^31.

KB cells [2] = experiment: FACS cell cycle analysis; type: cell-based; settings: 24 h, concentration dependent
Protocol: KB cells were grown in the presence or absence of CTK7A for 24 h with the indicated concentration. Cells were grown in presence of CTK7A for 2 h in absence of serum followed by addition of 10% Serum. Briefly cells were harvested by mild trypsinization (0.25%) followed by centrifugation at 2000 rpm for 10 minutes at 4° C. Cells were washed with cold PBS by centrifugation at 2000 rpm for 10 minutes at 4° C. Cells were fixed in cold 70% Ethanol which was added drop wise along with mild vortexing.
Samples were left for 12 hrs, after which Ethanol was removed followed by two washes in cold PBS. RNase (100 μg/ml) treatment was subsequently given at 37° C./30 minutes to ensure only DNA staining. 50 μg/ml Propidium Iodide was added for staining. Cells were sorted and analyzed by flow cytometry for the cell cycle distribution using inbuilt software of BD FACScalibur instrument. Analysis was done in FL2 channel.

G9a = molecular target: T3, G9a (Homo sapiens, UniProt Q96KQ7); experiment: Histone methyltransferase (HMTase) assay, G9a; type: biochemical; settings: even at 100 μM
T3 construct: hexahistidine; made in house; host or cells: baculovirus-infected Sf21 cells
T3 sequence (Q96KQ7 1-1210): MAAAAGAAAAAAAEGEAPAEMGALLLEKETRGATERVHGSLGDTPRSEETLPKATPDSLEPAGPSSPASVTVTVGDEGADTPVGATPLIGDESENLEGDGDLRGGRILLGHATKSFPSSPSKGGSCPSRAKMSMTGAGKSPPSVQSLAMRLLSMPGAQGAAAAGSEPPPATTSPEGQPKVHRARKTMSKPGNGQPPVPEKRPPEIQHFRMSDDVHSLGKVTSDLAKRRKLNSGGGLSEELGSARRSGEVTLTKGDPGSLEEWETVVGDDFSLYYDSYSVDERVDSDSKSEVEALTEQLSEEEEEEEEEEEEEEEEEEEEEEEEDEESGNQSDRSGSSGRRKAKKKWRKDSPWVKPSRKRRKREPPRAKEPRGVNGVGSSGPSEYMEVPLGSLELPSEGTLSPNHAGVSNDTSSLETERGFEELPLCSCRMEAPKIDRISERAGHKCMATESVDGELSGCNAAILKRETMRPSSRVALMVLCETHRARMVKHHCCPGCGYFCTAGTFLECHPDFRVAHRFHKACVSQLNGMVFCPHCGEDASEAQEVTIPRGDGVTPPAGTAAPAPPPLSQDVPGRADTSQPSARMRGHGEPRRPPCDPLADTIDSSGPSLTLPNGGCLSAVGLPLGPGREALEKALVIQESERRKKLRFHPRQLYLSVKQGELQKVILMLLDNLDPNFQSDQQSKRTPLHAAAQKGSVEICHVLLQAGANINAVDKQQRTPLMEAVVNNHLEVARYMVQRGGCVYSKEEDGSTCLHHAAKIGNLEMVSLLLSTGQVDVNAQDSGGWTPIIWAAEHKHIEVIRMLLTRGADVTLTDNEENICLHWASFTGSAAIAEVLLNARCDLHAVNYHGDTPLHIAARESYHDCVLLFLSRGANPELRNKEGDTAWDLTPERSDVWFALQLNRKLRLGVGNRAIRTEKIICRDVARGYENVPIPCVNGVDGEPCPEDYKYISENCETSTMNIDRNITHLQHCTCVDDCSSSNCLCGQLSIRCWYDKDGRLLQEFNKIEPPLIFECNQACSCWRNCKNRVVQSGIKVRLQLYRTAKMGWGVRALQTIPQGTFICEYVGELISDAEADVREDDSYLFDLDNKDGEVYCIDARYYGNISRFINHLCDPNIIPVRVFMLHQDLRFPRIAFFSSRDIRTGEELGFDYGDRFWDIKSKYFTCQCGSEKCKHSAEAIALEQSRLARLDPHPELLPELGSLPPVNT
Protocol: as §1, §2

COc1cc([O-])cc(C=CC2=NN(c3ccc(C(=O)[O-])cc3)C(C=Cc3cc([O-])cc(OC)c3)C2)c1.[Na+].[Na+].[Na+] (centres unmarked) [CTK7A, Sodium 4-(3,5-bis(3-methoxy-5-oxidostyryl)-4,5dihydro-1H-pyrazole-1-yl)benzoate]
inhibition of PCAF autoacetylation (PCAF): inhibit
wound healing activity (KB cells [1]): reduction
effect on CARM1 activity (CARM1): unaffected
percentage of polyploid cells (>4N) (KB cells [2]): dramatic increase
effect on G9a activity (G9a): unaffected
